Experimental data reported in patent publication US20230286970A1, “NOVEL OXADIAZOLE-BASED SELECTIVE HDAC6 INHIBITORS” (ITALFARMACO S.P.A., priority 2020, published 2023).

Columns and labels:
[1] = molecular target: recombinant human HDAC1 (Homo sapiens (Human), UniProt Q13547); experiment: Enzymatic screening, HDAC1 inhibition (fluorogenic FdL_G substrate); format: biochemical
Outline: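 Recombinant human HDAC1 inhibition was measured fluorometrically using the FLUOR DE LYS-Green (FdL_G) substrate. Compounds at 8 doses (1% DMSO final) in Tris-HCl pH 8 buffer with NaCl, Tween-20 and glycerol were preincubated in triplicate with enzyme and 1 mg/mL BSA, then given substrate. Developer I plus 2 μM TSA was added, and fluorescence read after 25 minutes in the dark.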

[2] = molecular target: recombinant human HDAC6 (Homo sapiens (Human), UniProt Q9UBN7); experiment: Enzymatic screening, HDAC6 inhibition (fluorogenic FdL_G substrate); format: biochemical
Outline: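 Enzyme was preincubated with compound (8 doses, triplicate, 1% DMSO) in 25 mM Tris-HCl pH 8, 130 mM NaCl, 0.05% Tween-20, 10% glycerol, with BSA. A FLUOR DE LYS-Green substrate was then added, and fluorescence was read after developer plus 2 μM TSA.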

[3] = Stability to Phase I metabolism in human S9 liver fraction; settings: after 90 minutes, 37° C.
[4] = Stability to Phase I metabolism in rat S9 liver fraction; settings: after 90 minutes, 37° C.
Procedure: Test compounds were incubated in rat and human liver S9 fraction at 37° C. up to 90 minutes in order to evaluate their stability to Phase I metabolism by hepatic enzymes. Each test compound was incubated at μM concentration (50 μM when the samples were analysed by UV/HPLC, 1 or 2 μM when the samples were analysed by LC-MS/MS) with S9 fraction (protein content 2 mg/m L) in 100 mM phosphate buffer (pH 7.4), 3.3 mM MgCl2 and 1.3 mM NADPH for 0, 10, 30, 60 and 90 minutes at 37° C. in a thermostated oscillating bath. The reaction was stopped placing samples on ice bath and adding acidified acetonitrile. After centrifugation (10 minutes at 14000 rpm) an aliquot of the supernatant was diluted with water, filtered with 0.45 μm regenerated cellulose syringe filters and injected in HPLC-UV or in LC-MS/MS. The percentage of the remaining amount at the various incubation times with respect to the initial amount were calculated.

[5] = Stability in human plasma; settings: after 4 hours, 37° C.
[6] = Stability in rat plasma; settings: after 4 hours, 37° C.
Procedure: In order to evaluate the stability to circulating enzymes, test compounds were incubated in human and rat plasma at 37° C. in a thermostated oscillating bath. Each test compound was incubated at μM concentration (50 μM when the samples were analysed by UV/HPLC, 1 or 2 μM when the samples were analysed by LC-MS/MS) for 0, 15, 30 minutes and 1, 2 and 4 hours. The reaction was stopped placing samples on ice bath and adding acidified acetonitrile. After centrifugation (10 minutes at 14000 rpm) an aliquot of the supernatant was diluted with water, filtered with 0.45 μm regenerated cellulose syringe filters and injected in HPLC-UV or in LC-MS/MS. The percentage of the remaining amount at the various incubation times with respect to the initial amount were calculated. The half-life in plasma was also calculated.

Sequence of recombinant human HDAC6 (Q9UBN7 whole entry): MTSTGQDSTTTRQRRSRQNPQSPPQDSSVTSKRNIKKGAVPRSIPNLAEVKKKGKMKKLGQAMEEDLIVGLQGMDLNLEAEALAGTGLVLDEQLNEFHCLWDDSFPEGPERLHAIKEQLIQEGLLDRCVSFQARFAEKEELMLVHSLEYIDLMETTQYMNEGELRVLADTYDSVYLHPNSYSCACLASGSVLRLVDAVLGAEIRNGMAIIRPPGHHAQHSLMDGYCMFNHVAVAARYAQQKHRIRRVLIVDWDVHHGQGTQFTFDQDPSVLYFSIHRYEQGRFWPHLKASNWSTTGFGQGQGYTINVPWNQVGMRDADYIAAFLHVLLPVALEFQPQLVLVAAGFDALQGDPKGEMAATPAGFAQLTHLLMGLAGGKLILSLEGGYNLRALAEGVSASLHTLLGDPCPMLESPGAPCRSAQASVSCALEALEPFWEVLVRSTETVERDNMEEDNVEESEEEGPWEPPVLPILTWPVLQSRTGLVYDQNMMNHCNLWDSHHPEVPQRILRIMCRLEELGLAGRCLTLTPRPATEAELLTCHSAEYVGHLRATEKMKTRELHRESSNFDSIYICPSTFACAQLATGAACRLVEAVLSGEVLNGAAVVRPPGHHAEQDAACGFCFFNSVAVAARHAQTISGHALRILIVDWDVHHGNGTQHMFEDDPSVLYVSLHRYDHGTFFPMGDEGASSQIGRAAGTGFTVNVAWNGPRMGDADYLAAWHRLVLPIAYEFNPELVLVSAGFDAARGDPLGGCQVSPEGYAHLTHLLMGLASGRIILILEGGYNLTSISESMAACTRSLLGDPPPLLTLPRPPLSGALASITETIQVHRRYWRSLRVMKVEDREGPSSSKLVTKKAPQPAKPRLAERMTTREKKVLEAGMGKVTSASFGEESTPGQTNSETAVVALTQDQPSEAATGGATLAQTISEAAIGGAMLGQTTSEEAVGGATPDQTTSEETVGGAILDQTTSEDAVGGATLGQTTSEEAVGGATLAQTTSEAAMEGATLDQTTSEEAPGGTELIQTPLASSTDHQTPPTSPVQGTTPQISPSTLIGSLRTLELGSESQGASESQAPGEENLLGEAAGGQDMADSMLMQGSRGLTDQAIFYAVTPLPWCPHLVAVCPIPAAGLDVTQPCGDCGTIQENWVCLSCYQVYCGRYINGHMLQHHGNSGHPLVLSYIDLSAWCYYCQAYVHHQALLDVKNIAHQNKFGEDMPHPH
Sequence of recombinant human HDAC1 (Q13547 whole entry): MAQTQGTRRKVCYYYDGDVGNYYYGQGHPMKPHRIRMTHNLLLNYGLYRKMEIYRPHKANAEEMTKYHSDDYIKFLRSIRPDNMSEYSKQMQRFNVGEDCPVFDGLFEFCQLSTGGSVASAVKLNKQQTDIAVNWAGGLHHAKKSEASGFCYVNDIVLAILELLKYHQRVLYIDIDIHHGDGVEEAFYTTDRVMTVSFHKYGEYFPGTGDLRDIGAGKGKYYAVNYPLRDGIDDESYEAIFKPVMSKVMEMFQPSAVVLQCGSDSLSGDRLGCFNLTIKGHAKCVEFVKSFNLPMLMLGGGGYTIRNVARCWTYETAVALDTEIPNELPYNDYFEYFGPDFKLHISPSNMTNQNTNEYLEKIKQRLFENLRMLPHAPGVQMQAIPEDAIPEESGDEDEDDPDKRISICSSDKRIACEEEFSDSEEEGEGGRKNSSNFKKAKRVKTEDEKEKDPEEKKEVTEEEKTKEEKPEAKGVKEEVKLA

IC50 [1] [µM] | IC50 [2] [µM] | residual percentage in HUMAN S9 FRACTION [3] [%] | residual percentage in RAT S9 FRACTION [4] [%] | residual percentage in HUMAN PLASMA [5] [%] | residual percentage in RAT PLASMA [6] [%] | Structure (SMILES)
> 200 | 0.028 | 99 | 35 | 94 | 76 | Cc1ncc(-c2nnn(Cc3ccc(-c4nnc(C(F)F)o4)cc3)n2)cc1N [compound 65, 5-(2-(4-(5-(difluoromethyl)-1,3,4-oxadiazol-2-yl)benzyl)-2H-tetrazol-5-yl)-2-methylpyridin-3-amine]
> 200 | 0.033 | 85 | 62 | 80 | 60 | Nc1ncnc2cc(-c3cn(Cc4ccc(-c5nnc(C(F)F)o5)cc4)nn3)ccc12 [compound 84, 7-(1-(4-(5-(difluoromethyl)-1,3,4-oxadiazol-2-yl)benzyl)-1H-1,2,3-triazol-4-yl)quinazolin-4-amine]
> 200 | 0.065 | 83 | 79 | 98 | 97 | Nc1ccc(-c2cn(Cc3ccc(-c4nnc(C(F)F)o4)cc3)cn2)cn1 [compound 151, 5-(1-(4-(5-(difluoromethyl)-1,3,4-oxadiazol-2-yl)benzyl)-1H-imidazol-4-yl)pyridin-2-amine]
> 200 | 0.293 | 88 | 89 | 91 | 82 | CCC[C@@H](c1ccc(-c2nnc(C(F)F)o2)cc1)n1cc(-c2ccc(N)nc2)nn1 [compound 250, (S)-5-(1-(1-(4-(5-(difluoromethyl)-1,3,4-oxadiazol-2-yl)phenyl)butyl)-1H-1,2,3-triazol-4-yl)pyridin-2-amine]
32.9 | 0.026 | 70 | 94 | 76 | 81 | CCNc1nc2ccc(-c3cn(Cc4ccc(-c5nnc(C(F)F)o5)cc4)nn3)cc2[nH]1 [compd. 60, 6-(1-(4-(5-(difluoromethyl)-1,3,4-oxadiazol-2-yl)benzyl)-1H-1,2,3-triazol-4-yl)-N-ethyl-1H-benzo[d]imidazol-2-amine]
> 200 | 0.355 | 54 | 9 | 78 | 86 | FC(F)c1nnc(-c2ccc(Cn3nnnc3-c3csc4ccccc34)cc2)o1 [compound 288, 2-(4-((5-(benzo[b]thiophen-3-yl)-1H-tetrazol-1-yl)methyl)phenyl)-5-(difluoromethyl)-1,3,4-oxadiazole]
> 200 | 0.023 | 88 | 91 | 77 | 78 | COc1ncccc1-c1cn(Cc2ccc(-c3nnc(C(F)F)o3)cn2)nn1 [compound 53, 2-(difluoromethyl)-5-(6-((4-(2-methoxypyridin-3-yl)-1H-1,2,3-triazol-1-yl)methyl)pyridin-3-yl)-1,3,4-oxadiazole]
> 200 | 0.272 | 98 | 65 | 99 | 81 | Nc1ccc(-c2nc(Cc3ccc(-c4nnc(C(F)F)o4)cc3)no2)cn1 [compound 247, 5-(3-(4-(5-(difluoromethyl)-1,3,4-oxadiazol-2-yl)benzyl)-1,2,4-oxadiazol-5-yl)pyridin-2-amine]
999 | 0.129 | 72 | 0 | 91 | 70 | FC(F)c1nnc(-c2ccc(Cn3nnc(-c4csc5ccccc45)n3)cc2)o1 [compound 207, 2-(4-((5-(benzo[b]thiophen-3-yl)-2H-tetrazol-2-yl)methyl)phenyl)-5-(difluoromethyl)-1,3,4-oxadiazole]
> 200 | 0.035 | 74 | 68 | 78 | 93 | CCNC(=O)c1cccc(-c2nnn(Cc3ccc(-c4nnc(C(F)F)o4)cc3)n2)c1 [compound 91, 3-(2-(4-(5-(difluoromethyl)-1,3,4-oxadiazol-2-yl)benzyl)-2H-tetrazol-5-yl)-N-ethylbenzamide]
> 200 | 0.156 | 86 | 89 | 92 | 69 | Nc1ccc(-c2nnc(Cc3ccc(-c4nnc(C(F)F)o4)cc3)o2)cn1 [Compd. 218, 5-(5-(4-(5-(difluoromethyl)-1,3,4-oxadiazol-2-yl)benzyl)-1,3,4-oxadiazol-2-yl)pyridin-2-amine]
> 200 | 0.03 | 97 | 83 | 79 | 79 | O=C(c1cccc(-c2nnn(Cc3ccc(-c4nnc(C(F)F)o4)cn3)n2)c1)N1CCOCC1 [compound 69, (3-(2-((5-(5-(difluoromethyl)-1,3,4-oxadiazol-2-yl)pyridin-2-yl)methyl)-2H-tetrazol-5-yl)phenyl)(morpholino)methanone]
> 200 | 0.036 | 72 | 59 | 74 | 79 | O=C(c1cccc(-c2nnn(Cc3ccc(-c4nnc(C(F)F)o4)cc3F)n2)c1)N1CCOCC1 [compound 93, (3-(2-(4-(5-(difluoromethyl)-1,3,4-oxadiazol-2-yl)-2-fluorobenzyl)-2H-tetrazol-5-yl)phenyl)(morpholino)methanone]
> 200 | 0.022 | 95 | 66 | 89 | 87 | NC(=O)c1cccc(-c2nnn(Cc3ccc(-c4nnc(C(F)F)o4)cc3F)n2)c1 [compound 50, 3-(2-(4-(5-(difluoromethyl)-1,3,4-oxadiazol-2-yl)-2-fluorobenzyl)-2H-tetrazol-5-yl)benzamide]
> 200 | 0.033 | 94 | 46 | 97 | 88 | CN1CCC(NC(=O)c2cccc(-c3nnn(Cc4ccc(-c5nnc(C(F)F)o5)cc4)n3)c2)CC1 [compound 80, 3-(2-(4-(5-(difluoromethyl)-1,3,4-oxadiazol-2-yl)benzyl)-2H-tetrazol-5-yl)-N-(1-methylpiperidin-4-yl)benzamide]
> 200 | 0.042 | 82 | 87 | 89 | 78 | O=C1NCc2ccc(-c3cn(Cc4ccc(-c5nnc(C(F)F)o5)cc4)nn3)cc21 [compound 109, 6-(1-(4-(5-(difluoromethyl)-1,3,4-oxadiazol-2-yl)benzyl)-1H-1,2,3-triazol-4-yl)isoindolin-1-one]
